Experimental data reported in patent publication US20200165194A1, “ADDITIVE COMPOSITION FOR CULTURE MEDIUM, ADDITIVE COMPOUND FOR CULTURE MEDIUM, AND METHOD FOR CULTURE OF CELLS OR TISSUE USING SAME” (NISSAN CHEMICAL CORPORATION, priority 2017, published 2020).
Like-named read-outs stand apart in the source and are kept apart here.

Legend:
Assay type in all cases: cell-based
[1] = system: a plurality of cancer cell lines; test: Various human cancer cells-2, summary over the cell lines (Experimental Example 6); settings: cancer cell lines under three-dimensional conditions
Experimental: (§1) Various human-derived cancer cells were precultured (single layer culture) in respective media shown below. […] The above-mentioned cells in the logarithmic growth phase were washed with PBS, a 0.25 w/v % trypsin-1 mmol/L EDTA (ethylenediaminetetraacetic acid) solution (manufactured by Wako Pure Chemical Industries, Ltd.) was added, and adherent cells were detached by incubating at 37° C. for 1-5 min. Each medium was added and the mixture was centrifuged. After resuspension in the same medium, each cell was recovered.
(§2) The aforementioned various cells were suspended in respective deacylated gellan gum-containing or not containing media (deacylated gellan gum concentration was 0.015 w/v %), and seeded in a 96 well low attachment U-bottom plate (manufactured by Corning, #4520, deacylated gellan gum-free medium), or a low attachment flat bottom plate (manufactured by Corning, #3474, deacylated gellan gum-containing medium) at a cell concentration of 700-12000 cells/90 μL/well (all 3D culture). […] The amount of each compound solution to be added was 10 μL/well. As a control, a DMSO solution dissolved in a medium was added (DMSO final concentration 0.1%). […] When compared with the compound no-addition (control), one showing a value of not more than 119% as -, one showing a value of not less than 120% as ◯, and one showing a value of not less than 150% as ⊚ are shown in the eleventh table and the twelfth table. Unperformed test is left blank.

[2] = system: plural animal cell lines; test: Animal cell lines, summary over the cell lines (Experimental Example 15); settings: animal cell lines under three-dimensional conditions
Description: Various animal cell lines were precultured (single layer culture) as follows in respective media. Chinese hamster ovary-derived cell line CHO-K1 (manufactured by DS PHARMA BIO MEDICAL, 10% fetal bovine serum (FBS, manufactured by Corning)-containing Ham's F-12 medium (manufactured by Fujifilm Wako Pure Chemical Corporation)), Cercopithecus aethiops kidney epithelium-derived cell line Vero (purchased from JCRB cell bank, 5% FBS-containing Medium 199 medium (manufactured by Life Technologies)). The above-mentioned cells in the logarithmic growth phase were washed with PBS, a 0.25 w/v % trypsin-1 mmol/L EDTA (ethylenediaminetetraacetic acid) solution (manufactured by Fujifilm Wako Pure Chemical Corporation) was added, and adherent cells were detached by incubating at 37° C. for 3 min. Each medium was added and the mixture was centrifuged and resuspended in the same medium.
The aforementioned various animal cells were suspended in respective deacylated gellan gum-containing or not containing media (deacylated gellan gum concentration was 0.02 w/v % in Ham's F-12 medium, 0.015 w/v % in Medium 199 medium), and seeded in a 96 well low attachment U-bottom plate (manufactured by Corning, #4520, deacylated gellan gum-free medium), or a low attachment flat bottom plate (manufactured by Corning, #3474, deacylated gellan gum-containing medium) at a cell concentration of 700-2000 cells/90 μL/well (all 3D culture). […] The amount of each compound solution to be added was […]. As a control, a DMSO solution dissolved in a medium was added (DMSO final concentration 0.1%). […] When compared with the compound non-addition (control), one showing a value of not more than 119% as -, one showing a value of not less than 120% as ◯, and one showing a value of not less than 150% as ⊚ are shown in the twenty-third table and the twenty-fourth table.

[3] = system: Bone marrow-derived human mesenchymal stem cells (BM-hMSC); test: Human mesenchymal stem cell-2: 3D, EZSPHERE and 2D culture, ATP assay (Experimental Example 10); settings: for viability at 1 µM / viability at 5 µM / viability at 10 µM / viability at 20 µM: Homo sapiens, Mesenchymal stem cells, 96 h, BM-hMSC, 4 days, non-addition = 100%, read-out: relative value of RLU (number of viable cells)
Experimental: Bone marrow-derived human mesenchymal stem cells (BM-hMSC, manufactured by PromoCell) were precultured by a single layer culture method (2D) using a mesenchymal stem cell proliferation medium (manufactured by PromoCell). In three-dimensional culture method (3D), hMSC was suspended in a medium composition added with deacylated gellan gum, and seeded in a […] flat bottom Ultr-low Attachment surface plate (manufactured by Corning Incorporated, #3474) at 6000 cells/90 μL/well. In the three-dimensional culture method using EZSPHERE (EZSPHERE), hMSC was suspended in a deacylated gellan gum-free medium composition, and seeded in a 96-well EZSPHERE plate (manufactured by AGC TECHNO GLASS CO., LTD., #4860-900) at 2000 cells/90 μL/well. In 2D, hMSC was suspended in a deacylated gellan gum-free medium composition, and seeded in a 96-well flat bottom plate (manufactured by Corning Incorporated, #3585) at 2000 cells/90 μL/well. […] As a control, DMSO was added at a final concentration of 0.1%.

[4] = system: human alveolar basal epithelial adenocarcinoma-derived cell line A549; test: Various human cancer cells-2, 3D culture, ATP assay (Experimental Example 6); settings: 4 days; for viability at 5 µM / viability at 10 µM: Homo sapiens, A549, 96 h, read-out: number of viable cells (RLU), relative value to control (100%)
Experimental: as §1, §2

[5] = system: human ovarian cancer cell line SKOV3; test: as above; settings: 4 days; for viability at 5 µM / viability at 10 µM: Homo sapiens, SK-OV-3, 96 h, read-out: number of viable cells (RLU), relative value to control (100%)
Experimental: as §1, §2

[6] = system: Human umbilical vein endothelial cells; test: Vascular endothelial cell, 3D culture, ATP assay (Experimental Example 14); settings: for viability at 5 µM / viability at 10 µM: Homo sapiens, HUVEC, 96 h, 4 days, no-addition = 100%, read-out: relative value of RLU (number of viable cells); for proliferation activity (in words): human umbilical vein endothelial cells under three-dimensional conditions
Experimental: Human umbilical vein endothelial cells (manufactured by PromoCell) were precultured in Endothelial Cell proliferation Medium (manufactured by PromoCell) medium (single layer culture). The above-mentioned cells in the logarithmic growth phase were washed with PBS, DetachKit (manufactured by PromoCell) was added, and adherent cells were detached by incubating at 37° C. for 3 min. The medium was added and the mixture was centrifuged and resuspended in the same medium.
The aforementioned cells were suspended in respective deacylated gellan gum-containing or not containing media (deacylated gellan gum concentration was 0.015 w/v %), and seeded in a 96 well low attachment U-bottom plate (manufactured by Corning, #4520, deacylated gellan gum-free medium), or a low attachment flat bottom plate (manufactured by Corning, #3474, deacylated gellan gum-containing medium) at a cell concentration of 700-2000 cells/90 μL/well (all 3D culture). […] The amount of each compound solution to be added was 10 μL/well. As a control, a DMSO solution dissolved in a medium was added (DMSO final concentration 0.1%).

[7] = three-dimensional cell culture conditions
[8] = low attachment U-bottom plate, 5 μM
[9] = low attachment U-bottom plate, 10 μM
[10] = low attachment flat bottom plate (gellan gum medium), 5 μM
[11] = low attachment flat bottom plate (gellan gum medium), 10 μM
[12] = low attachment flat bottom plate (deacylated gellan gum-containing medium)

Structure (SMILES)	proliferation activity (in words) [1]	proliferation activity (in words) [2]	viability at 1 µM ([3]; 2D) [%]	viability at 5 µM ([3]; 2D) [%]	viability at 10 µM ([3]; 2D) [%]	viability at 20 µM ([3]; 2D) [%]	viability at 1 µM ([3]; 3D (deacylated gellan gum)) [%]	viability at 5 µM ([3]; 3D (deacylated gellan gum)) [%]	viability at 10 µM ([3]; 3D (deacylated gellan gum)) [%]	viability at 20 µM ([3]; 3D (deacylated gellan gum)) [%]	viability at 1 µM ([3]; EZSPHERE plate) [%]	viability at 5 µM ([3]; EZSPHERE plate) [%]	viability at 10 µM ([3]; EZSPHERE plate) [%]	viability at 20 µM ([3]; EZSPHERE plate) [%]	proliferation activity (in words) [3, 7]	proliferation activity (in words) [6]	other results
CC/C(=N\NC(=O)NCc1ccccc1)c1ccc(O)c(C)c1O [k-1:I-1]	promoted proliferation activity in a plurality of cancer cell lines	promoted proliferation activity in plural animal cell lines	107	98	104	107	100	123	150	177	101	120	144	163	promoted proliferation activity of BM-hMSC	promoted proliferation activity in human umbilical vein endothelial cells	viability at 5 µM [4, 8]: < 119%; viability at 10 µM [4, 9]: < 119%; viability at 5 µM [4, 10]: < 119%; viability at 10 µM [4, 11]: 120 to 150%; viability at 5 µM [5, 8]: 120 to 150%; viability at 10 µM [5, 9]: 120 to 150%; viability at 5 µM [5, 10]: < 119%; viability at 10 µM [5, 11]: 120 to 150%; viability at 5 µM ([6]; low attachment U-bottom plate): 327%; viability at 10 µM ([6]; low attachment U-bottom plate): 304%; viability at 5 µM [6, 12]: 209%; viability at 10 µM [6, 12]: 268%
CC/C(=N\NC(=O)C(C)Nc1ccccc1)c1ccc(O)c(C)c1O (centres unmarked) [k-1:B-1]	promoted proliferation activity in a plurality of cancer cell lines	promoted proliferation activity in plural animal cell lines	109	125	158	164	139	298	418	420	154	247	297	278	promoted proliferation activity of BM-hMSC	promoted proliferation activity in human umbilical vein endothelial cells	proliferation activity (in words) ([3]; two-dimensional cell culture conditions): promoted proliferation activity of hMSC; number of viable cells (RLU), relative value to control (100%) [4, 8]: ⊙; number of viable cells (RLU), relative value to control (100%) [4, 9]: ⊙; number of viable cells (RLU), relative value to control (100%) [4, 10]: ⊙; number of viable cells (RLU), relative value to control (100%) [4, 11]: ⊙; number of viable cells (RLU), relative value to control (100%) [5, 8]: ⊙; number of viable cells (RLU), relative value to control (100%) [5, 9]: ⊙; number of viable cells (RLU), relative value to control (100%) [5, 10]: ⊙; number of viable cells (RLU), relative value to control (100%) [5, 11]: ⊙
